Measured values published in ChEMBL document CHEMBL5241107, “Discovery of an eIF4A Inhibitor with a Novel Mechanism of Action” (J Med Chem, 2021).
pEC50, pIC50: −log10 of the molar value. Activity calls are given as the source filed them. The calls are words filed in the database; no cut-off is given here.

Legend:
[1] = molecular target: T1, Eukaryotic initiation factor 4A-I (Homo sapiens, UniProt P60842); assay: Inhibition of human recombinant N-terminal His6-tagged eIF4A expressed in Escherichia coli BL21 CodonPlus cells using ATP and yeast RNA as substrate preincubated with enzyme for 20 mins followed by susbtrate addition and measured after 4 hrs by Malachite green ATPase assay
T1 sequence (P60842 whole entry): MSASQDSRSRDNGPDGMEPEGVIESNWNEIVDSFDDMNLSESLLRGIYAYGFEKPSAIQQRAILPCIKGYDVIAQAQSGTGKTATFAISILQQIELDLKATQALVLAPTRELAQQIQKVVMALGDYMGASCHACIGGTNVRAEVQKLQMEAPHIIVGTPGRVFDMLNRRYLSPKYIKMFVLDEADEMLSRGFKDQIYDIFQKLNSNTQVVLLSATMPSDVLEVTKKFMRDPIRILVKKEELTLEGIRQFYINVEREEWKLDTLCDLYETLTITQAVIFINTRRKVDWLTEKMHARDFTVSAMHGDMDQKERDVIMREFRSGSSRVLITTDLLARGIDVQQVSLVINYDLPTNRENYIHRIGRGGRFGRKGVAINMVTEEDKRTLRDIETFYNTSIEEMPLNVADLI

Reticulocyte [2] = assay: Inhibition of cap-dependent translation of firefly luciferase in rabbit reticulocyte lysates using bicistronic luciferase reporter [pSP/(CAG)33/FF/HCV/Ren.pA51] at 600 uM incubated for 90 mins by luciferase reporter gene based luminescence analysis; type: functional, subcellular; conditions: Oryctolagus cuniculus
Reticulocyte [3] = assay: Inhibition of IRES-dependent translation of renilla luciferase in rabbit reticulocyte lysates using bicistronic luciferase reporter [pSP/(CAG)33/FF/HCV/Ren.pA51] at 600 uM incubated for 90 mins by luciferase reporter gene based luminescence analysis; type: functional, subcellular; conditions: Oryctolagus cuniculus
BJAB = assay: Cytotoxicity against human BJAB cells assessed as reduction in cell viability measured after 72 hrs by CellTiter-Glo luminescent assay; type: functional, cell-based; conditions: for pEC50: Homo sapiens, BJAB, 72 h, read-out: EC50; for EC50: bjab
[4] = molecular target: T1, Eukaryotic initiation factor 4A-I; assay: Displacement of MANT-ATP from human recombinant N-terminal His6-tagged eIF4A expressed in Escherichia coli BL21 CodonPlus cells at 1 mM preincubated with enzyme and yeast RNA for 20 mins followed by MANT-ATP addition for 30 mins by fluorescence polarization assay; conditions: time 50.0 min
Reticulocyte [5] = assay: Inhibition of eIF4A in rabbit reticulocyte lysate assessed as inhibition of cap-dependent translation of firefly luciferase using bicistronic luciferase reporter [pSP/(CAG)33/FF/HCV/Ren.pA51] at 100 nM incubated for 90 mins by luciferase reporter gene based luminescence analysis; type: subcellular; conditions: Oryctolagus cuniculus
[6] = molecular target: T1, Eukaryotic initiation factor 4A-I; assay: Binding affinity to eIF4A in human A549 cells assessed as increase in thermal stability of the protein at 100 nM incubated for 90 mins by CETSA analysis; type: cell-based
Reticulocyte [7] = assay: Inhibition of IRES-dependent translation of renilla luciferase in rabbit reticulocyte lysates using bicistronic luciferase reporter [pSP/(CAG)33/FF/HCV/Ren.pA51] at 100 nM incubated for 90 mins by luciferase reporter gene based luminescence analysis; type: functional, subcellular; conditions: Oryctolagus cuniculus
[8] = molecular target: T1, Eukaryotic initiation factor 4A-I; assay: Inhibition of helicase activity of human recombinant N-terminal His6-tagged eIF4A expressed in Escherichia coli BL21 CodonPlus cells assessed as decrease in single stranded signal using Cy3-labeled RNA strand and unlabeled DNA strand by native PAGE analysis
[9] = molecular target: T1, Eukaryotic initiation factor 4A-I; assay: Uncompetitive inhibition of human recombinant N-terminal His6-tagged eIF4A expressed in Escherichia coli BL21 CodonPlus cells assessed as decrease in Km and Vmax of ATP using varying concentrations of ATP and 250 ug/ml yeast RNA as substrate preincubated with enzyme for 20 mins followed by substrate addition and measured after 1 to 7 hrs by Malachite green ATPase assay; conditions: time 80-440 min
[10] = molecular target: T1, Eukaryotic initiation factor 4A-I; assay: Inhibition of helicase activity of human recombinant N-terminal His6-tagged eIF4A expressed in Escherichia coli BL21 CodonPlus cells using Cy3-labeled RNA strand and unlabeled DNA strand by native PAGE analysis
[11] = molecular target: T1, Eukaryotic initiation factor 4A-I; assay: Competitive inhibition of human recombinant N-terminal His6-tagged eIF4A expressed in Escherichia coli BL21 CodonPlus cells assessed as […] with constant Vmax of RNA using 250 uM ATP and varying concentration of yeast RNA as substrate preincubated with enzyme for 20 mins followed by substrate addition and measured after 1 to 7 hrs by Malachite green ATPase assay; conditions: time 80-440 min
[12] = molecular target: T1, Eukaryotic initiation factor 4A-I; assay: Inhibition of helicase activity of human recombinant N-terminal His6-tagged eIF4A expressed in Escherichia coli BL21 CodonPlus cells assessed as increase in double stranded signal using Cy3-labeled RNA strand and unlabeled DNA strand by native PAGE analysis

SMILES | pIC50 [1] | further results
O=C(O)c1cc(-c2ccc(-c3cccc4ccccc34)o2)nc2ccc([N+](=O)[O-])cc12 | 4.44 | 
C[C@@H]1C[C@@H]([C@H](O)CC2CC(=O)NC(=O)C2)C(=O)[C@@H](C)C1 |  | inhibition (Reticulocyte [2]): Active; inhibition (Reticulocyte [3]): Active
CCCCc1ccc(-c2ccc(-c3cc(C(=O)OCC)c4cc([N+](=O)[O-])ccc4n3)o2)cc1 | < 3.82 | pEC50 (BJAB): < 5.00
CCCOc1cccc(-c2ccc(-c3cc(C(=O)O)c4cc([N+](=O)[O-])ccc4n3)o2)c1 | 4.21 | 
CCCCc1ccc(-c2ccc(-c3cc(C(=O)O)c4cc(F)c(F)cc4n3)o2)cc1 | 4.27 | 
CCCCc1ccc(-c2ccc(-c3cc(C(=O)O)c4cc(C)cc(C)c4n3)o2)cc1 | 3.95 | 
O=C(O)c1cc(-c2ccc(-c3ccc4c(c3)OCO4)o2)nc2ccc([N+](=O)[O-])cc12 | < 3.82 | 
CCCCc1ccc(-c2cccc(-c3cc(C(=O)O)c4cc([N+](=O)[O-])ccc4n3)n2)cc1 | 4.07 | 
CCCCc1ccc(-c2cccc(-c3cc(C(=O)O)c4cc([N+](=O)[O-])ccc4n3)c2)cc1 | 4.13 | 
CCCCc1ccc(-c2ccc(-c3cc(C(=O)O)c4cc(-c5ccccc5)ccc4n3)o2)cc1 | 3.91 | 
CCCCc1ccc(-c2ccc(-c3cc(C(=O)O)c4cc([N+](=O)[O-])ccc4n3)[nH]2)cc1 | 4.20 | 
CCCCc1ccc(-c2ccc(-c3cc(C(=O)O)c4cc(F)ccc4n3)o2)cc1 | 4.27 | 
O=C(O)c1cc(-c2ccc(-c3ccc(Oc4ccccc4)cc3)o2)nc2ccc([N+](=O)[O-])cc12 | 4.90 | 
CCCCc1ccc(-c2ccc(-c3cc(C(=O)O)c4cc(OC(F)(F)F)ccc4n3)o2)cc1 | < 3.82 | 
CCCCc1ccc(-c2cncc(-c3cc(C(=O)O)c4cc([N+](=O)[O-])ccc4n3)c2)cc1 | < 3.82 | 
CCCCc1ccc(-c2ccc(-c3cc(C(=O)O)c4ccc(C(F)(F)F)cc4n3)o2)cc1 | 4.21 | 
CCCc1ccc(-c2ccc(-c3cc(C(=O)O)c4cc([N+](=O)[O-])ccc4n3)o2)cc1 | 4.39 | 
CCCCc1ccc(-c2ccc(-c3cc(C(=O)O)c4cc(C(C)C)ccc4n3)o2)cc1 | 3.97 | 
Nc1ncnc2c1ncn2[C@@H]1O[C@H](COP(=O)(O)OP(=O)(O)O)[C@@H](O)[C@H]1O |  | inhibition [4]: Active
CCCCc1ccc(-c2ccc(-c3cc(C(=O)O)c4c(Cl)cccc4n3)o2)cc1 | 3.87 | 
Nc1cccc(-c2ccc(-c3cc(C(=O)O)c4cc([N+](=O)[O-])ccc4n3)o2)c1 | < 3.82 | EC50 (BJAB): Not Active
CCCCc1ccc(-c2ccc(-c3cc(C(=O)O)c4cc(NC(C)=O)ccc4n3)o2)cc1 | 3.90 | EC50 (BJAB): Not Active
CCCCc1ccc(-c2ccc(-c3cc(C(=O)O)c4cccc([N+](=O)[O-])c4n3)o2)cc1 |  | pEC50 [1]: 4.56
CCCCc1ccc(-c2ccc(-c3cc(C(=O)O)c4cc(Cl)ccc4n3)o2)cc1 | 4.36 | 
CCCOc1ccccc1-c1ccc(-c2cc(C(=O)O)c3cc([N+](=O)[O-])ccc3n2)o1 | 4.34 | 
CCCOc1ccc(-c2ccc(-c3cc(C(=O)O)c4cc([N+](=O)[O-])ccc4n3)o2)cc1 | 4.34 | 
CCCCc1ccc(-c2ccc(-c3cc(C(=O)O)c4cccc(Cl)c4n3)o2)cc1 | 4.13 | 

SMILES | pIC50 [1] | further results
CCCCc1ccc(-c2ccc(-c3cc(C(=O)O)c4cc([N+](=O)[O-])ccc4n3)s2)cc1 | 4.21 | 
CCCCc1ccc(-c2ccc(-c3cc(C(=O)O)c4cccc(C(F)(F)F)c4n3)o2)cc1 | 4.57 | 
CCCCCc1ccc(-c2ccc(-c3cc(C(=O)O)c4cc([N+](=O)[O-])ccc4n3)o2)cc1 | 5.06 | 
Nc1ccc(-c2ccc(-c3cc(C(=O)O)c4cc([N+](=O)[O-])ccc4n3)o2)cc1 | < 3.82 | EC50 (BJAB): Not Active
O=C(O)c1cc(-c2ccc(-c3ccccc3)o2)nc2ccc([N+](=O)[O-])cc12 | < 3.82 | 
CCCCc1ccc(-c2ccc(-c3cc(C(=O)O)c4cc(C)ccc4n3)o2)cc1 | 3.98 | 
COC(=O)[C@H]1[C@@H](O)[C@@]2(O)c3c(OC)cc(O[C@@H]4O[C@@H]([C@H](O)CO)CO[C@H]4OC)cc3O[C@@]2(c2ccc(OC)cc2)[C@@H]1c1ccccc1 |  | inhibition (Reticulocyte [5]): Active; Activity [6]: Active; inhibition (Reticulocyte [7]): inactive
CCCCc1ccc(-c2ccc(-c3cc(C(=O)O)c4cc([N+](=O)[O-])ccc4n3)cn2)cc1 | 4.22 | 
CC(C)(C)OC(=O)Nc1ccc(-c2ccc(-c3cc(C(=O)O)c4cc([N+](=O)[O-])ccc4n3)o2)cc1 | 3.85 | 
CCCCc1ccc(-c2ccc(-c3cc(C(=O)O)c4cccc(Br)c4n3)o2)cc1 | 4.62 | 
CCCCc1ccc(-c2ccc(-c3cc(C(=O)O)c4cc(I)ccc4n3)o2)cc1 | 4.38 | 
CCCCc1ccc(-c2ccc(-c3cc(C(=O)O)c4ccc(F)cc4n3)o2)cc1 | 4.33 | 
CCCCc1ccc(-c2ccc(-c3cc(C(=O)OCC)c4cc(Br)ccc4n3)o2)cc1 | 3.89 | 
O=C(O)c1cc(-c2ccc(-c3cccc(Oc4ccccc4)c3)o2)nc2ccc([N+](=O)[O-])cc12 | 4.65 | 
O=C(O)c1cc(-c2ccc(-c3ccc(-c4ccccc4)cc3)o2)nc2ccc([N+](=O)[O-])cc12 | 4.18 | 
CCCCc1ccc(-c2ccc(-c3cc(C(=O)O)c4cc([N+](=O)[O-])ccc4n3)cc2)cc1 | 4.26 | 
CCCCc1ccc(-c2ccc(-c3cc(C(=O)O)c4ccccc4n3)o2)cc1 | < 3.82 | 
CCCCc1ccc(-c2ccc(-c3cc(C(=O)O)c4cc(Br)ccc4n3)o2)cc1 |  | inhibition [8]: Active; pEC50 (BJAB): 5.67; inhibition [9]: Active; pIC50 [10]: 4.54; inhibition [11]: Active; inhibition [12]: Active
CCCCc1ccc(-c2ccc(-c3cc(C(=O)O)c4cc(N)ccc4n3)o2)cc1 | < 3.82 | EC50 (BJAB): Not Active
CCCCc1ccc(-c2ccc(-c3cc(C(=O)O)c4cc(OC)ccc4n3)o2)cc1 | 4.27 | 
CCCCc1ccc(-c2ccc(-c3cc(C(=O)O)c4ccc(Br)cc4n3)o2)cc1 | 4.48 | 
CCCCc1ccc(-c2ccc(-c3cc(C(=O)O)c4cc(CC)ccc4n3)o2)cc1 | 3.83 | 
O=C(O)c1cc(-c2ccc(-c3cccc(-c4ccccc4)c3)o2)nc2ccc([N+](=O)[O-])cc12 | 4.59 | 
CC(C)(C)OC(=O)Nc1cccc(-c2ccc(-c3cc(C(=O)O)c4cc([N+](=O)[O-])ccc4n3)o2)c1 | 3.96 | 
O=C(O)c1cc(-c2ccc(-c3ccccc3Oc3ccccc3)o2)nc2ccc([N+](=O)[O-])cc12 | 4.68 | 
CCCCc1ccc(-c2ccc(-c3cc(C(=O)O)c4cc(Cl)c(Cl)cc4n3)o2)cc1 | 4.05 | 
